Results reported in ChEMBL document CHEMBL1148113, “New cytotoxic monotetrahydrofuran annonaceous acetogenins from Annona muricata” (J Nat Prod, 2002).
In brackets after ≈: the same amount, converted by molar mass.

How the values were obtained:
[1] = Cytotoxicity against human HepG2(2.2.15) cells after 3 days; format: functional, cell-based; conditions: HepG2 2.2.15, 72 h
HepG2 = test: Cytotoxicity against human HepG2 cells after 3 days; format: functional, cell-based; conditions: HepG2, 72 h

| SMILES | IC50 [1] [mg/L] | IC50 (HepG2) [mg/L] |
| --- | --- | --- |
| CCCCC/C=C\CC[C@H](O)[C@@H](O)CCCC[C@@H](O)[C@H]1CC[C@H](CCCCCCCCCCCCC2=C[C@H](C)OC2=O)O1 [MURICIN I] | 0.222 (≈ 0.366 µM) | 0.0509 (≈ 0.0839 µM) |
| CCCCCCCC(O)C(O)CC[C@H](O)[C@@H]1CC[C@H](CCCCCCCCCCCC[C@@H](O)CC2=C[C@H](C)OC2=O)O1 (stereo partly drawn) [MURICIN C] | 0.00387 (≈ 0.00648 µM) | 0.499 (≈ 0.836 µM) |
| CCCCCCCCCCCC[C@@H](O)[C@H]1CC[C@@H]([C@@H](O)CCCCC(=O)CCCCCCCC2=C[C@H](C)OC2=O)O1 [COROSSOLONE] | 0.0476 (≈ 0.0822 µM) | 0.165 (≈ 0.285 µM) |
| CCCCCC(O)C(O)CCCCCC[C@H](O)[C@@H]1CC[C@H](CCCCCCCCCC[C@H](O)CC2=C[C@H](C)OC2=O)O1 (stereo partly drawn) [MURICIN B] | 0.00429 (≈ 0.00719 µM) | 1.78 (≈ 2.98 µM) |
| CCCCCCCCCCCC[C@@H](O)[C@H]1CC[C@@H]([C@@H](O)CCCCCCC(O)CCCCC[C@@H](O)CC2=C[C@H](C)OC2=O)O1 (stereo partly drawn) | 0.0162 (≈ 0.0259 µM) | 0.298 (≈ 0.477 µM) |
| CCCCCCC[C@H](O)[C@@H](O)CCCC[C@@H](O)[C@H]1CC[C@H](CCCCCCCCCCCCC2=C[C@H](C)OC2=O)O1 [MURICIN H] | 0.0118 (≈ 0.0203 µM) | 0.0951 (≈ 0.164 µM) |
| COc1cccc2c1C(=O)c1c(O)c3c(c(O)c1C2=O)C[C@@](O)(C(=O)CO)C[C@@H]3O[C@H]1C[C@H](N)[C@H](O)[C@H](C)O1 [DOXORUBICIN] | 0.45 (≈ 0.828 µM) | 0.241 (≈ 0.443 µM) |
| CCC[C@H](O)[C@@H](O)CCCCCCCC[C@@H](O)[C@H]1CC[C@H](CCCCCCCCCC[C@@H](O)CC2=C[C@H](C)OC2=O)O1 [ANNOCATALIN] | 0.00348 (≈ 0.00583 µM) | 5.7 (≈ 9.55 µM) |
| CCCCCC(O)C(O)CCCCCC[C@@H](O)[C@H]1CC[C@H](CCCCCCCCCC[C@@H](O)CC2=C[C@H](C)OC2=O)O1 (stereo partly drawn) [MURICIN A] | 0.00513 (≈ 0.00859 µM) | 5.04 (≈ 8.44 µM) |
